Here are results for one compound from patent US10662413B2, “Recombinant DNA polymerase for improved incorporation of nucleotide analogues” (PERSONAL GENOMICS, INC., priority 2016, dated 2020).

The term IC50 denotes the concentration at which inhibition is half-maximal. As usually defined, the Kd is the concentration at which binding is half-saturated.

For assay [1], the target named is T1, Bst-Lg (Bst Large fragment DNA polymerase) (Geobacillus stearothermophilus, UniProt P52026).
T1 construct: Bst Large fragment DNA polymerase; purchased New England Biolabs
T1 sequence (P52026 289-876 limits assumed): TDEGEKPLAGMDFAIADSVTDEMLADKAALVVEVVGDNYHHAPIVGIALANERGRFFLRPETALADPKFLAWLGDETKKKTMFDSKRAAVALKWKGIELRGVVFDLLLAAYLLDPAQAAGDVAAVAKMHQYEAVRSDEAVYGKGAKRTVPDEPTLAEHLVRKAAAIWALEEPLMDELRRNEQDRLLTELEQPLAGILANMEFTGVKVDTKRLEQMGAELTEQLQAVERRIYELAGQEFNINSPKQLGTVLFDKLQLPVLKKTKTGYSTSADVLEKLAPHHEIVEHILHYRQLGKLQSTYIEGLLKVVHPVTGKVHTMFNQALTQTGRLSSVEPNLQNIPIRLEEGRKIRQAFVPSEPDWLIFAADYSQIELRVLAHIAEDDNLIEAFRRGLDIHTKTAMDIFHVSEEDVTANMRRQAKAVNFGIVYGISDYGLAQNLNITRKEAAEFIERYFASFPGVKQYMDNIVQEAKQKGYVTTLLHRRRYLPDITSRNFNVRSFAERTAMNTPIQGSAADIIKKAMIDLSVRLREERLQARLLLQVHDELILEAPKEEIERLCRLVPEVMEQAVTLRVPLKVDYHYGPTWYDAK
The assay is described as follows: Polymerase end point (PEP) assay. The assay is classed as biochemical. As to conditions: read-out: Average IC50 ± SD. As to the method:
(§1) Accordingly, the end-point concentration, IC50 value, of the respective nucleotide was calculated.

The target in a further assay is THN (Therminator). The assay is described as follows: Polymerase end point (PEP) assay. The assay is classed as biochemical. The note with it: read-out: Average IC50 ± SD. As to the method:
as §1

Assay [2] has as its target T2, Klenow (exo-) fragment DNA polymerase (Escherichia coli, UniProt P00582, D355A/E357A).
T2 construct: Klenow (exo-) fragment DNA polymerase; purchased New England Biolabs
The assay is classed as biochemical. As to conditions: PEP assay, read-out: Average IC50 ± SD. As to the method:
as §1

A further assay has as its target T3, 9°N-III DNA polymerase (Thermococcus sp., UniProt Q56366, A485L/D141A/E143A/L408S/P410V/Y409A).
T3 construct: 6x histidine tag (C); made in house; host or cells: E. coli BL21
The assay is classed as biochemical, Thermococcus sp. 9° N-7 strain. The note with it: PEP assay, read-out: Average IC50 ± SD. How it is done: as §1

The next assay deals with T4, 9°N-I DNA polymerase (Thermococcus sp., UniProt Q56366, A485L/D141A/E143A).
T4 construct: made in house; host or cells: E. coli BL21
Kind of assay: Pre-steady state kinetic assay. The assay is classed as biochemical, Thermococcus sp. 9° N-7 strain. The note with it: 30° C. As to the method:
The rate of incorporation of the correct base onto the 25/36 mer duplex was determined in a reaction. The reaction was initiated by combining the solution containing the enzyme and DNA substrate with the second solution containing Mg^2+/dNTP. The reaction was quenched with 0.25 M EDTA (final concentration), pH 8.0. A rapid quench instrument (KinTek Instrument Corp., State College, Pa.) was used for reaction times ranging from 20 ms to 20 s.

T4 sequence (Q56366 whole entry D141A/E143A/A485L): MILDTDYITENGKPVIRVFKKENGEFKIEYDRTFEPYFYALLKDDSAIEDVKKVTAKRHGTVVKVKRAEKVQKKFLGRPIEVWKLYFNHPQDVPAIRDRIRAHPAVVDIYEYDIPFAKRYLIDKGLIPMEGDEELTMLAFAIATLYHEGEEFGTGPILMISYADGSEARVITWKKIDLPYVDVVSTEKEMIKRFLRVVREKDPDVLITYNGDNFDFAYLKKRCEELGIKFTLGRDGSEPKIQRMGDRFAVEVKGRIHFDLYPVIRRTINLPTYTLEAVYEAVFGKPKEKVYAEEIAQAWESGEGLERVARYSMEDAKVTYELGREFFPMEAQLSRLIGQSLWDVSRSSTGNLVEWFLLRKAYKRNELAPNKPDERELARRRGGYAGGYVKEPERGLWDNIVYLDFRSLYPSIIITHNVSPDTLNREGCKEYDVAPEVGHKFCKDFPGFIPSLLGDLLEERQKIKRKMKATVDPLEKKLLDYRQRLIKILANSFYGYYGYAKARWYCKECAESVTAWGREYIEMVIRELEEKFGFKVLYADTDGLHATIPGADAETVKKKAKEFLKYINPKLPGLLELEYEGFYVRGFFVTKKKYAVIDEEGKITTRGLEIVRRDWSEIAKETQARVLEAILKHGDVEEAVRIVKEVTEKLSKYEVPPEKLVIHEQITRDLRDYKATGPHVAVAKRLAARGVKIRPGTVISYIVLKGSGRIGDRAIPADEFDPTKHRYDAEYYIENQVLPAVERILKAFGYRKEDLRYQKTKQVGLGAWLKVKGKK
T2 sequence (P00582 324-928 D355A/E357A): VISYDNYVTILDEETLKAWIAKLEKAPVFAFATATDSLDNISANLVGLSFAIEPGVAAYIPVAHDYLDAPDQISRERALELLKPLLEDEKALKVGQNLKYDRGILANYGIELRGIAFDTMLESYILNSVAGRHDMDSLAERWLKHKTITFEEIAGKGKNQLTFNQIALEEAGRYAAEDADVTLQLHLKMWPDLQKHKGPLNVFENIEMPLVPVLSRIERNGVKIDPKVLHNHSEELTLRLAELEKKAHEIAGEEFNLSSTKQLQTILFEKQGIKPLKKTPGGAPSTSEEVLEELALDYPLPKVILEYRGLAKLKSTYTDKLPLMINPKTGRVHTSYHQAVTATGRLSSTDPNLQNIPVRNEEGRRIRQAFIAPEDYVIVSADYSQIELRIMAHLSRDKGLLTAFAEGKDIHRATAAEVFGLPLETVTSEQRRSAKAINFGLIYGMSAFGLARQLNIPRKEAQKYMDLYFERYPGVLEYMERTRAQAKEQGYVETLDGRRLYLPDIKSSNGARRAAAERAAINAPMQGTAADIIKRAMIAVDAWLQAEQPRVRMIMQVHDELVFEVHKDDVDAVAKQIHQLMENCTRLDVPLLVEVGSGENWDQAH
T3 sequence (Q56366 whole entry D141A/E143A/L408S/Y409A/P410V/A485L): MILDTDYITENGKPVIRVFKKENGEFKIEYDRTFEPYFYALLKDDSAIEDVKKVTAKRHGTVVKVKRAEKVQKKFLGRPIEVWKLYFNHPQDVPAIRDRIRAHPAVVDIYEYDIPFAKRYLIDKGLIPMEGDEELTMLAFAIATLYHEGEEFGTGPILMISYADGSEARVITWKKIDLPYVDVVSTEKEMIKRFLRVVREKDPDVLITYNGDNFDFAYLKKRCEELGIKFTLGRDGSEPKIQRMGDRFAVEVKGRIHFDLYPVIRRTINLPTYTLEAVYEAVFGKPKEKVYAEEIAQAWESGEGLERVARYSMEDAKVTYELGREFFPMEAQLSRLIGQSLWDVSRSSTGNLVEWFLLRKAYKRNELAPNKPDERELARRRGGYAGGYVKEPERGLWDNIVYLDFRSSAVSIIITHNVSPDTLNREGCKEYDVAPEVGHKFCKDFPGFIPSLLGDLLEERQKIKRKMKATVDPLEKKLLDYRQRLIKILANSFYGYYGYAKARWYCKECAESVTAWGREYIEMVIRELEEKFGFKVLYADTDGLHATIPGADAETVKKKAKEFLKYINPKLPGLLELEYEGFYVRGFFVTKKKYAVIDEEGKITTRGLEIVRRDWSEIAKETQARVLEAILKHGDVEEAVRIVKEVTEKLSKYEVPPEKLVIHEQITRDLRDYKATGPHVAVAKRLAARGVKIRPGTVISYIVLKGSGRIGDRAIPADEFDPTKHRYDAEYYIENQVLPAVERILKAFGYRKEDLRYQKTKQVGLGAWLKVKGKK

For `Nc1ncnc2c1ncn2[C@H]1C[C@H](O)[C@@H](COP(=O)(O)OP(=O)(O)OP(=O)(O)O)O1` [dATP], the IC50 in assay [1] came to 2.54 ± 0.067 nM; on THN (Therminator), 0.526 ± 0.008 nM; in assay [2], 0.589 ± 0.008 nM; at 9°N-III DNA polymerase it was 14 ± 0.6 nM. Further, at 9°N-I DNA polymerase, the Kd is 8000 nM. At 9°N-I DNA polymerase, this compound displayed a kpol of 132.4 s⁻¹. The kpol/Kd at 9°N-I DNA polymerase stood at 1.655e+07 M⁻¹ s⁻¹.
